ChEMBL document CHEMBL5137044, “Expansion of the S-CN-DABO scaffold to exploit the impact on inhibitory activities against the non-nucleoside HIV-1 reverse transcriptase” (Eur J Med Chem, 2022)

Experiments:
[1] = system: Human immunodeficiency virus 1; assay: Antiviral activity against […] HIV-1 infected in human MT4 cells assessed as reduction in virus-induced cytopathic effect incubated for 5 days by MTT assay; assay type: functional, organism-based; conditions: Human immunodeficiency virus 1, MT4, 120 h
[2] = Cytotoxicity against human MT4 cells assessed as cell growth inhibition incubated for 5 days by MTT assay; assay type: toxicity, cell-based; conditions: time 5 day
[3] = Selectivity index, ratio of CC50 for human MT4 cells to EC50 for antiviral activity against NNRTI resistant HIV-1 infected in human MT4 cells; assay type: toxicity, cell-based; conditions: read-out: Ratio CC50/EC50
[4] = system: Human immunodeficiency virus 1; assay: Antiviral activity against drug-resistant HIV-1 L100I mutant infected in human MT4 cells assessed as reduction in virus-induced cytopathic effect incubated for 5 days by MTT assay; assay type: functional, organism-based; conditions: Human immunodeficiency virus 1, L100I mutant, MT4, 120 h
[5] = system: Human immunodeficiency virus 1; assay: Antiviral activity against drug-resistant HIV-1 K103 N mutant infected in human MT4 cells assessed as reduction in virus-induced cytopathic effect incubated for 5 days by MTT assay; assay type: functional, organism-based; conditions: Human immunodeficiency virus 1, K103 N mutant, MT4, 120 h
[6] = system: Human immunodeficiency virus 1; assay: Antiviral activity against drug-resistant HIV-1 Y181C mutant infected in human MT4 cells assessed as reduction in virus-induced cytopathic effect incubated for 5 days by MTT assay; assay type: functional, organism-based; conditions: Human immunodeficiency virus 1, Y181C mutant, MT4, 120 h
[7] = system: Human immunodeficiency virus 1; assay: Antiviral activity against drug-resistant HIV-1 E138K mutant infected in human MT4 cells assessed as reduction in virus-induced cytopathic effect incubated for 5 days by MTT assay; assay type: functional, organism-based; conditions: Human immunodeficiency virus 1, E138K mutant, MT4, 120 h
[8] = molecular target: Human immunodeficiency virus type 1 reverse transcriptase (Human immunodeficiency virus 1, UniProt Q72547); assay: Inhibition of recombinant wild-type p66/p51 HIV-1 reverse transcriptase incubated for 40 mins by picogreen dye-based spectrofluorometric analysis
Cytochrome P450 2C9 = Cytochrome P450 2C9 (Homo sapiens, UniProt P11712); assay: Inhibition of CYP2C9 in human liver microsomes using […] as substrate incubated for 15 to 40 mins in presence of NADPH; assay type: ADME, Microsome
Sequence of Cytochrome P450 2C9 (P11712 whole entry): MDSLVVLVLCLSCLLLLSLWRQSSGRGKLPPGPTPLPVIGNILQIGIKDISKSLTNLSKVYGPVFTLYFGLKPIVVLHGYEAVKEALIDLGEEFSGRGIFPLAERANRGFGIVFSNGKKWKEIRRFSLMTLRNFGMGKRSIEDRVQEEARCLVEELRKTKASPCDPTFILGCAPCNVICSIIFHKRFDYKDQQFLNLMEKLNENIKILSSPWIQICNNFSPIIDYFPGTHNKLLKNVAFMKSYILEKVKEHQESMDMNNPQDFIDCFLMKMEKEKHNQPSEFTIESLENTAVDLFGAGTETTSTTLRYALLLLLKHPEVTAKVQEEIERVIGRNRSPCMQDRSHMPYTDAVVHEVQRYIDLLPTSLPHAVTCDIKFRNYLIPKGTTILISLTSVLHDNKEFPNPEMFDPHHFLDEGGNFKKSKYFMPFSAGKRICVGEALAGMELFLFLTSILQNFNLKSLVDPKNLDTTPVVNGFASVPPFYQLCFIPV

Cytochrome P450 2D6 = Cytochrome P450 2D6 (Homo sapiens, UniProt P10635); assay: Inhibition of CYP2D6 in human liver microsomes using dextromethorphan as substrate incubated for 15 to 40 mins in presence of NADPH; assay type: ADME, Microsome
Sequence of Cytochrome P450 2D6 (P10635 whole entry): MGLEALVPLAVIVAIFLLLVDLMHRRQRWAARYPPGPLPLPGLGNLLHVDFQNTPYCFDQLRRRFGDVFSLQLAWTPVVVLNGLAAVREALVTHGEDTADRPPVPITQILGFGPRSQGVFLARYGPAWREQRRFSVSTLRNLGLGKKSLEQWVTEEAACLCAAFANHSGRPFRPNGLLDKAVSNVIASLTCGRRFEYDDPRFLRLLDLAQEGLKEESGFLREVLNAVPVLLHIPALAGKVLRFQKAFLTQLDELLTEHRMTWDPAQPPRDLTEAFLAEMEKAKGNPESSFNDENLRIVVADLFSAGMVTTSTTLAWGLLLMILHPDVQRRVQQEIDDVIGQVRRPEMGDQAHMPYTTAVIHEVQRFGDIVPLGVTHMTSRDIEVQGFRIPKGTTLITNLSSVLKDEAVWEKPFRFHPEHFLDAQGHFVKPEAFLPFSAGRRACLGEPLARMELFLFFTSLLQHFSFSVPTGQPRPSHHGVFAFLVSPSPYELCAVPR

Cytochrome P450 3A4 [9] = molecular target: T1, Cytochrome P450 3A4 (Homo sapiens, UniProt P08684); assay: Inhibition of CYP3A4T in human liver microsomes using testosterone as substrate incubated for 15 to 40 mins in presence of NADPH; assay type: ADME, Microsome
T1 sequence (P08684 whole entry): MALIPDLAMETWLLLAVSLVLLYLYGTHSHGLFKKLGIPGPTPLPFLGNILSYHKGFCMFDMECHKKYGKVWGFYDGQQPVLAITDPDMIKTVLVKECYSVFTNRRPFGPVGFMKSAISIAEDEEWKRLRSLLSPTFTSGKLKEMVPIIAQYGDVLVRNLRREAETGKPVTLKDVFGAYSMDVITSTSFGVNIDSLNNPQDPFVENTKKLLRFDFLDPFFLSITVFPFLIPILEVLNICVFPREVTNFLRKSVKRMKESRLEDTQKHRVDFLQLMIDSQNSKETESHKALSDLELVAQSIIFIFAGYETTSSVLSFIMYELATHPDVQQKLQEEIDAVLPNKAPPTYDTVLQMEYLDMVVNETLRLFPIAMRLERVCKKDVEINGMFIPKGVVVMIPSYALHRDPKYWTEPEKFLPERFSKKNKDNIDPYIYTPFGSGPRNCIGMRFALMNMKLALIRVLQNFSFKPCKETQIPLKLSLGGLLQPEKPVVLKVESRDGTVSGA

Cytochrome P450 3A4 [10] = molecular target: T1, Cytochrome P450 3A4; assay: Inhibition of CYP3A4M in human liver microsomes using midazolam as substrate incubated for 15 to 40 mins in presence of NADPH; assay type: ADME, Microsome
[11] = Half life in Sprague-Dawley rat at 10 mg/kg,po measured upto 24 hrs by LC-MS/MS analysis; assay type: ADME, organism-based; conditions: in vivo
[12] = Half life in Sprague-Dawley rat at 1 mg/kg,iv measured upto 24 hrs by LC-MS/MS analysis; assay type: ADME, organism-based; conditions: in vivo
[13] = Cmax in Sprague-Dawley rat at 10 mg/kg,po measured upto 24 hrs by LC-MS/MS analysis; assay type: ADME, organism-based; parameters: dose 10 mg/kg, time < 24 hrs, route po; conditions: in vivo
[14] = Cmax in Sprague-Dawley rat at 1 mg/kg,iv measured upto 24 hrs by LC-MS/MS analysis; assay type: ADME, organism-based; parameters: dose 1 mg/kg, time < 24 hrs, route iv; conditions: in vivo
[15] = AUC (0 to t) in Sprague-Dawley rat at 10 mg/kg,po measured upto 24 hrs by LC-MS/MS analysis; assay type: ADME, organism-based; parameters: dose 10 mg/kg, time < 24 hrs, route po; conditions: in vivo
[16] = AUC (0 to infinity) in Sprague-Dawley rat at 10 mg/kg,po measured upto 24 hrs by LC-MS/MS analysis; assay type: ADME, organism-based; parameters: dose 10 mg/kg, time < 24 hrs, route po; conditions: in vivo
[17] = AUC (0 to infinity) in Sprague-Dawley rat at 1 mg/kg,iv measured upto 24 hrs by LC-MS/MS analysis; assay type: ADME, organism-based; parameters: dose 1 mg/kg, time < 24 hrs, route iv; conditions: in vivo
[18] = Apparent volume of distribution in Sprague-Dawley rat at 1 mg/kg,iv measured upto 24 hrs by LC-MS/MS analysis; assay type: ADME, organism-based; conditions: in vivo, read-out: Vz
[19] = Clearance in Sprague-Dawley rat at 10 mg/kg,po measured upto 24 hrs by LC-MS/MS analysis; assay type: ADME, organism-based; conditions: in vivo
[20] = Clearance in Sprague-Dawley rat at 1 mg/kg,iv measured upto 24 hrs by LC-MS/MS analysis; assay type: ADME, organism-based; conditions: in vivo
[21] = MRT(0 to t) in Sprague-Dawley rat at 10 mg/kg,po measured upto 24 hrs by LC-MS/MS analysis; assay type: ADME, organism-based; conditions: in vivo
[22] = MRT(0 to t) in Sprague-Dawley rat at 1 mg/kg,iv measured upto 24 hrs by LC-MS/MS analysis; assay type: ADME, organism-based; conditions: in vivo
[23] = MRT (0 to infinity) in Sprague-Dawley rat at 10 mg/kg,po measured upto 24 hrs by LC-MS/MS analysis; assay type: ADME, organism-based; conditions: in vivo
[24] = MRT (0 to infinity) in Sprague-Dawley rat at 1 mg/kg,iv measured upto 24 hrs by LC-MS/MS analysis; assay type: ADME, organism-based; conditions: in vivo
[25] = Oral bioavailability in Sprague-Dawley rat at 10 mg/kg measured upto 24 hrs by LC-MS/MS analysis; assay type: ADME, organism-based; conditions: in vivo
[26] = Acute toxicity in mouse assessed as body weight change at 1 g/Kg,IG monitored for 2 weeks; conditions: in vivo, po, 1000 mg/kg, 336 h
[27] = Acute toxicity in mouse assessed as mouse death at 1 g/Kg,IG monitored for 2 weeks; conditions: in vivo, po, 1000 mg/kg, 336 h
[28] = Acute toxicity in healthy mouse assessed as brain damage at 1 g/Kg,IG monitored for 2 weeks by HE staining based assay; assay type: tissue-based; conditions: in vivo, po, 1000 mg/kg, 336 h
[29] = Acute toxicity in healthy mouse assessed as liver damage at 1 g/Kg,IG monitored for 2 weeks by HE staining based assay; assay type: tissue-based; conditions: in vivo, po, 1000 mg/kg, 336 h
[30] = Acute toxicity in healthy mouse assessed as spleen damage at 1 g/Kg,IG monitored for 2 weeks by HE staining based assay; assay type: tissue-based; conditions: in vivo, po, 1000 mg/kg, 336 h
[31] = Acute toxicity in healthy mouse assessed as lung damage at 1 g/Kg,IG monitored for 2 weeks by HE staining based assay; assay type: tissue-based; conditions: in vivo, po, 1000 mg/kg, 336 h
[32] = Acute toxicity in mouse assessed as behavioral abnormalities at 1 g/Kg,IG monitored for 2 weeks; conditions: in vivo, po, 1000 mg/kg, 336 h
hERG = hERG (Homo sapiens, UniProt Q12809); assay: Inhibition of human ERG expressed in CHO cells at 40 uM at -80 mV holding potential by automated patch clamp method relative to control; assay type: toxicity, cell-based; conditions: CHO cells that express hERG
Sequence of hERG (Q12809 whole entry): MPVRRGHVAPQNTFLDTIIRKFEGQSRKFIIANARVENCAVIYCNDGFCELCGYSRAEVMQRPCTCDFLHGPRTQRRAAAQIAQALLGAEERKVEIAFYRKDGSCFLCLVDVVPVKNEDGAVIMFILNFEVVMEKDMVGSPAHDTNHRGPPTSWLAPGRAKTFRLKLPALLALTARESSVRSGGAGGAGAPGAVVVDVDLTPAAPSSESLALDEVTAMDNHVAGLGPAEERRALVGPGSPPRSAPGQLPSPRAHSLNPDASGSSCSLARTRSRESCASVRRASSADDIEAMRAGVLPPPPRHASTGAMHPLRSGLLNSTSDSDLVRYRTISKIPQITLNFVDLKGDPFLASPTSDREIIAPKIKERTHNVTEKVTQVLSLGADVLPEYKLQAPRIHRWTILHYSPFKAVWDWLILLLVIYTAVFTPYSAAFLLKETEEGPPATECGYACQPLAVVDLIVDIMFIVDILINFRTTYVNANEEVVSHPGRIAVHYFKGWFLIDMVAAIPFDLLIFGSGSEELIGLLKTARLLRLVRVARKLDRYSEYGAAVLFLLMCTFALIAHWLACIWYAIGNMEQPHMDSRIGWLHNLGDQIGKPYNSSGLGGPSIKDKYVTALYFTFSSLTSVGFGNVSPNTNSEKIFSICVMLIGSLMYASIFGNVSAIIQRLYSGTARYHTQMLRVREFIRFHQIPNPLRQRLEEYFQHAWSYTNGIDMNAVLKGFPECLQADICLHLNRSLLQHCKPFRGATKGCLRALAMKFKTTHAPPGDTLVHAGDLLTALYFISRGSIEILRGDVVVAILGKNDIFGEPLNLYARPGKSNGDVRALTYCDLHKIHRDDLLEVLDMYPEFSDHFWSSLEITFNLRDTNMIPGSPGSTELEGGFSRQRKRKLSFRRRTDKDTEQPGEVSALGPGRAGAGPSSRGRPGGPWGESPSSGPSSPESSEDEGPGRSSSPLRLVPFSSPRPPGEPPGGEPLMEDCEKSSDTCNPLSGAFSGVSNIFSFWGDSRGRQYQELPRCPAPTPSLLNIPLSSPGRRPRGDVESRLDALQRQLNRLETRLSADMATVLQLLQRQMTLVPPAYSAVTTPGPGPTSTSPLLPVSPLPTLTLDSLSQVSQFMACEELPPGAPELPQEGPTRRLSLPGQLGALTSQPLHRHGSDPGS

[33] = Fold resistance, ratio of EC50 for antiviral activity against drug-resistant HIV-1 K103 N mutant infected in human MT4 cells to EC50 for antiviral activity against […] HIV-1 infected in human MT4 cells; assay type: functional
[34] = Fold resistance, ratio of EC50 for antiviral activity against drug-resistant HIV-1 Y181C mutant infected in human MT4 cells to EC50 for antiviral activity against […] HIV-1 infected in human MT4 cells; assay type: functional
[35] = Fold resistance, ratio of EC50 for antiviral activity against drug-resistant HIV-1 E138K mutant infected in human MT4 cells to EC50 for antiviral activity against […] HIV-1 infected in human MT4 cells; assay type: functional

`Cc1c(C(C#N)c2c(F)cccc2F)nc(SC(C)C)[nH]c1=O` (stereo not drawn) showed an EC50 [1] of 20.8 nM, a CC50 at 120 h [2] of 137000 nM and a selectivity ratio [3] of 6560. It also gave an EC50 [4] of 1030 nM, an EC50 [5] of 3390 nM and an EC50 [6] of 750 nM. For the same molecule, the EC50 [7] was 50 nM, the IC50 [8] was 79 nM and the IC50 (Cytochrome P450 2C9) was 40400 nM. It also gave an IC50 (Cytochrome P450 2D6) greater than 50000 nM, an IC50 (Cytochrome P450 3A4 [9]) greater than 50000 nM and an IC50 (Cytochrome P450 3A4 [10]) greater than 50000 nM. It also gave a half-life [11] of 4.39 h, a half-life [12] of 4.07 h and a Cmax [13] of 15300 ng/mL. The Cmax [14] was 7620 ng/mL, the AUC(0-t) at 24 h [15] was 133 µg·h/mL and the AUC(0-inf) [16] was 136 µg·h/mL. It also gave an AUC(0-inf) [17] of 8.32 µg·h/mL, a Vd [18] of 0.764 L/kg and a CL/F [19] of 1.24 mL/min/kg. For the same molecule, the clearance [20] was 2.13 mL/min/kg, the MRT last at 24 h [21] was 6.2 h and the MRT last at 24 h [22] was 2.25 h. It also gave an MRT inf [23] of 6.82 h, an MRT inf [24] of 2.41 h and an F [25] of 164%. For the same molecule, the Activity [26] was “Non-Toxic”, the Activity [27] was “Non-Toxic” and the Activity [28] was “Non-Toxic”. The Activity [29] was “Non-Toxic”, the Activity [30] was “Non-Toxic” and the Activity [31] was “Non-Toxic”. For the same molecule, the Activity [32] was “Non-Toxic”, the inhibition at 40 µM (hERG) was 29.4% and the “Ratio EC50” value [33] was 163. The “Ratio EC50” value [34] was 36 and the “Ratio EC50” value [35] was 2.
